This passage reports TGI results from PubChem BioAssay (NCI).

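Following 48 hours of exposure in 96-well plates, responses at five concentrations were used to interpolate endpoints linearly. TGI: concentration producing complete growth inhibition.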

Some test systems named below: HCT-116 colon; SK-MEL-5 melanoma; MDA-N; MDA-MB-435; TK-10 renal; MDA-MB-231 breast; CAKI-1 renal; NCI-H522 lung; NCI/ADR-RES ovarian; SW-620 colon; OVCAR-8 ovarian; NCI-H460 lung; NCI-H23 lung; MOLT-4 leukemia; NCI-H226 lung; SR leukemia; SF-268 CNS.
Holding throughout (test): inhibition of tumour cell growth, NCI panel, 48 h

In the case of `COc1cc(S(=O)(=O)Nc2nc(-c3ccc(N4C(=O)/C(=C/C=C/c5ccccc5)N=C4c4ccccc4)cc3)cs2)ccc1Cl`, the TGI in the assay on HCT-116 colon, in the assay with SK-MEL-5 melanoma, in the assay with MDA-N, in the assay on MDA-MB-435, in the assay on TK-10 renal and with MDA-MB-231 breast was greater than 100 µM throughout. The TGI with CAKI-1 renal, in the assay on NCI-H522 lung, with NCI/ADR-RES ovarian, with SW-620 colon, in the assay on OVCAR-8 ovarian and in the assay on NCI-H460 lung was greater than 100 µM throughout. Further, the TGI in the assay on NCI-H23 lung, in the assay on MOLT-4 leukemia, with NCI-H226 lung, with SR leukemia and in the assay with SF-268 CNS was greater than 100 µM in each case.
`Oc1cc2c3c(c1)CCCN3CCC2`: the TGI in the assay with HCT-116 colon, in the assay with SK-MEL-5 melanoma, in the assay with MDA-N, with MDA-MB-435, in the assay with TK-10 renal and in the assay on MDA-MB-231 breast was greater than 10 µM each time. For the same compound, the TGI in the assay with CAKI-1 renal, in the assay with NCI-H522 lung, in the assay with NCI/ADR-RES ovarian, with SW-620 colon, in the assay on OVCAR-8 ovarian and with NCI-H460 lung was greater than 10 µM in each case. Besides, the TGI in the assay on NCI-H23 lung, with MOLT-4 leukemia, in the assay on NCI-H226 lung, with SR leukemia and in the assay on SF-268 CNS was greater than 10 µM each time.
As for `O=C(c1c(F)c(F)c(F)c(F)c1F)N1CCN(C(=O)c2c(F)c(F)c(F)c(F)c2F)C1=S`, the TGI with HCT-116 colon stood at 7.72 µM; in the assay on SK-MEL-5 melanoma it was 19.6 µM; in the assay with MDA-N, 6.54 µM; in the assay on MDA-MB-435, 11.9 µM; in the assay with TK-10 renal it was 27 µM; in the assay on MDA-MB-231 breast, 14.4 µM. In addition, the TGI in the assay with CAKI-1 renal was 6.89 µM; with NCI-H522 lung, 1.65 µM; in the assay with NCI/ADR-RES ovarian it was 32.1 µM; in the assay on SW-620 colon, 3.59 µM; in the assay on OVCAR-8 ovarian, 12.9 µM; in the assay with NCI-H460 lung, 25.6 µM. The TGI in the assay with NCI-H23 lung is 20.1 µM; in the assay on MOLT-4 leukemia, 11.4 µM; in the assay on NCI-H226 lung, 30.8 µM; with SR leukemia it was greater than 100 µM; in the assay with SF-268 CNS, 32.6 µM.
